Tested on: N9 murine microglial cell line
Experiment: Chemotaxis of N9 microglial cells
Assay type: cell-based, mouse
Conditions: LPS-activated N9 cells; PTX 100 ng/ml, 37° C., 30 min

pertussis toxin was tested, and the “effect of pretreatment on chemotaxis to Aβ” value was “completely blocked”.
